Measurements reported in patent US8604202B2, “Thienopyridone derivatives as AMP-activated protein kinase (AMPK) activators” (Merck Patent GmbH, priority 2008, dated 2013).

Key:
[1] = system: ob/ob and db/db mice; conditions: 8 day administration; cited from earlier work
[2] = target: T1, AMPK protein (recombinant α1β1γ2) (Homo sapiens, UniProt Q13131+Q9Y478); experiment: AMPK enzymatic activity (Delfia, AMARA peptide); type: biochemical; conditions: compound 30 μM vs AMP 30 μM; 125 μM ATP; 30 min room temperature; ratio 90% or higher = direct activator
T1 construct: made in house; host or cells: E. coli
T1 sequence (Q13131 whole entry): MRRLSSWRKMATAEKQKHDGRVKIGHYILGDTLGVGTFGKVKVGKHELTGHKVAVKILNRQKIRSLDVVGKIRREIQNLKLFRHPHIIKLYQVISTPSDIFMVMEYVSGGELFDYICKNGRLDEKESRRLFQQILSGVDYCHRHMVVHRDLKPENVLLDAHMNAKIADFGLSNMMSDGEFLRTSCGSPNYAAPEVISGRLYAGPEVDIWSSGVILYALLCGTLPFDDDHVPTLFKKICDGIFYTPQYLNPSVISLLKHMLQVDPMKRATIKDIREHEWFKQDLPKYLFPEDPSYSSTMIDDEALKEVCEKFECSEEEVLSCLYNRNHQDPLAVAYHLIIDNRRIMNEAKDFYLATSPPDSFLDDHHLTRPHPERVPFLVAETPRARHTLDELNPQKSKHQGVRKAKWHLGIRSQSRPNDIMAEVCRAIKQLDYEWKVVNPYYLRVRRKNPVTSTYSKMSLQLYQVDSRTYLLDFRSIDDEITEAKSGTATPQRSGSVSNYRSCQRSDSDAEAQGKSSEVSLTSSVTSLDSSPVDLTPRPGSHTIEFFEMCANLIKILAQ
T1 sequence (Q9Y478 whole entry): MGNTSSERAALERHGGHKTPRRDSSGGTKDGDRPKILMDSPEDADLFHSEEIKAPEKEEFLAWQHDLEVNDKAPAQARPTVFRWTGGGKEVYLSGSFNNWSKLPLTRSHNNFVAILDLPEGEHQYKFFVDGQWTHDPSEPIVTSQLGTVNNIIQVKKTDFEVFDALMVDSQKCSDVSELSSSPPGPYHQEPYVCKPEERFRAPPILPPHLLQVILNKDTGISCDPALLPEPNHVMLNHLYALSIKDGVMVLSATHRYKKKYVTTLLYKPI
T1 sequence (Q9UGJ0 whole entry partner): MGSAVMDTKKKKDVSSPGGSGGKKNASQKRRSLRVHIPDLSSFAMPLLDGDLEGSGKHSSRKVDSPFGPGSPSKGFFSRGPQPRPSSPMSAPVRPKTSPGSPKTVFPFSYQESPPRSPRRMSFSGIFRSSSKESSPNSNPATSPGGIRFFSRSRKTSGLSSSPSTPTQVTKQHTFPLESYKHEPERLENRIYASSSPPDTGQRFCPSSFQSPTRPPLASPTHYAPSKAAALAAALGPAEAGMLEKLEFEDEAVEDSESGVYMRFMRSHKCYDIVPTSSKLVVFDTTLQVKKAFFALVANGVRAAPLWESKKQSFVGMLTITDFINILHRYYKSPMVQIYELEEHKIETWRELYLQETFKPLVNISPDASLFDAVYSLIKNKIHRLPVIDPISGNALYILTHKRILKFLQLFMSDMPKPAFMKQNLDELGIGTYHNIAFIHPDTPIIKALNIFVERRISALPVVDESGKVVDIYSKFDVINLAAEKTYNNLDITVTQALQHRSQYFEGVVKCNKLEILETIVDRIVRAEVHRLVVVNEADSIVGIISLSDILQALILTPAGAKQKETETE
Method: The following biological test allows the determination of the efficacy of such compounds of formula (I) onto AMPK protein (recombinant α1β1γ2).
Human recombinant AMPK enzyme was expressed in E. Coli and was reactivated in vitro by LKB1 prior to enzyme activity determination.
AMPK enzyme activities were assayed by using A Delfia technology. AMPK enzyme activities were carried out in microtiter plates (50 mM Hepes buffer, pH 7.4 with 125 μM ATP respectively) in the presence of a synthetic peptide substrate (AMARAASAAALARRR, the “AMARA” peptide) and activators in serial dilutions. Reactions were initiated by the addition of AMPK (50-100 ng). Following mixing, the plates were incubated for 30 min at room temperature. Enzyme activity was assayed by using an anti-phosphoserine antibody to measure the quantity of phosphate incorporated into the AMARAA.
Ratio between the % of control (basal activity) of compound of formula (I) at 30 μM and the % of control (basal activity) of AMP (natural substrate) at 30 μM. Compounds of formula (I) in the table II are considered as direct activator of AMPK if the ratio is 90% or higher.

[3] = system: H-2 Kb cells; experiment: Glucose uptake in H-2 Kb cells (in vitro cellular test); type: cell-based, mouse; conditions: differentiated H-2 Kb muscle cells, 4 hours incubation, 2-deoxy-D-[3H]glucose 10 min; for EC (glucose uptake equal or higher to insulin 170 nM): Mus musculus, read-out: activity: Concentration of compound for a glucose uptake equal or higher to glucose uptake induced by insulin (170 nM)
Method: The following cellular test allows the determination of the effect of AMPK activators such as compounds of formula (I) onto glucose uptake in a muscle cellular model.
H-2 Kb cells derived from heterozygous H-2 Kb tsA58 transgenic mouse were grown in 24-well in plates coated with matrigel and were cultured at 33° C. for 4 days under permissive conditions, as described previously by Fryer et al. (Diabetes 49 (12): 1978, 2000).
For differentiation in muscle, cells were switched to non-permissive culture conditions (37° C. in the absence of interferon-γ). After 3 days, cells were incubated for 4 hours in DMEM 1 g/l glucose culture medium containing different concentrations of the tested molecules. Then glucose uptake was measured by incubating the cells for 10 min with radiolabelled 2-deoxy-D-[1, 2 ^3H] glucose. Glucose uptake was terminated by rapidly washing the plates 2 times with ice-cold NaCl 0.9%. The cells were then solubilized in 0.1N NaOH for 30 min. Radioactivity was determined by liquid scintillation counting.
Activity table III: Concentration of compound (1) for a glucose uptake equal or higher to glucose uptake induced by insulin (170 nM)

SMILES	reduces blood glucose [1]	activity: Ratio between the % of control (basal activity) of compound of formula (I) at 30 μM and the % of control (basal activity) of AMP at 30 μM [2]	EC (glucose uptake equal or higher to insulin 170 nM) [3]	activity: Concentration of compound for a glucose uptake equal or higher to glucose uptake induced by insulin (170 nM) [3]
NC(=O)c1ncn([C@@H]2O[C@H](CO)[C@@H](O)[C@H]2O)c1N [AICAR, 5-aminoimidazole-4-carboxamide riboside]	35%	–	–	–
N#Cc1ccc(-c2c(O)c3c(-c4ccc(-c5ccccc5)cc4)csc3[nH]c2=O)cc1 [Compound 22, 3-biphenyl-4-yl-5-(4-cyanophenyl)-4-hydroxy-6,7-dihydro-thieno[2,3-b]pyridin-6-one]	–	152%	> 10 µM	–
O=c1[nH]c2scc(-c3ccc(-c4ccccc4)cc3)c2c(O)c1-c1ccccc1 [Compound 1, 3-biphenyl-4-yl-4-hydroxy-5-phenyl-6,7-dihydro-thieno[2,3-b]pyridin-6-one]	–	130%	> 10 µM	–
COc1ccccc1-c1ccc(-c2c(Cl)sc3[nH]c(=O)c(-c4ccccc4)c(O)c23)cc1 [Compound 3, 2-chloro-4-hydroxy-3-(2′-methoxybiphenyl-4-yl)-5-phenyl-6,7-dihydro-thieno[2,3-b]pyridin-6-one]	–	111%	–	** (concentration of compound (I) ≦10 microMolar)
